Data taken from ChEMBL document CHEMBL1201862, “PubChem BioAssay data set” (2004).
Active and inactive are the calls of the source.

Tests used:
[1] = target: T1, Rac GTPase-activating protein 1 (Homo sapiens, UniProt Q9H0H5); assay: MgcRacGAP GTPase-activating activity inhibitors, confirmation, biochemical, ADP Hunter fluorescence, primary and confirmatory (AID 624330); format: functional
T1 sequence (Q9H0H5 whole entry): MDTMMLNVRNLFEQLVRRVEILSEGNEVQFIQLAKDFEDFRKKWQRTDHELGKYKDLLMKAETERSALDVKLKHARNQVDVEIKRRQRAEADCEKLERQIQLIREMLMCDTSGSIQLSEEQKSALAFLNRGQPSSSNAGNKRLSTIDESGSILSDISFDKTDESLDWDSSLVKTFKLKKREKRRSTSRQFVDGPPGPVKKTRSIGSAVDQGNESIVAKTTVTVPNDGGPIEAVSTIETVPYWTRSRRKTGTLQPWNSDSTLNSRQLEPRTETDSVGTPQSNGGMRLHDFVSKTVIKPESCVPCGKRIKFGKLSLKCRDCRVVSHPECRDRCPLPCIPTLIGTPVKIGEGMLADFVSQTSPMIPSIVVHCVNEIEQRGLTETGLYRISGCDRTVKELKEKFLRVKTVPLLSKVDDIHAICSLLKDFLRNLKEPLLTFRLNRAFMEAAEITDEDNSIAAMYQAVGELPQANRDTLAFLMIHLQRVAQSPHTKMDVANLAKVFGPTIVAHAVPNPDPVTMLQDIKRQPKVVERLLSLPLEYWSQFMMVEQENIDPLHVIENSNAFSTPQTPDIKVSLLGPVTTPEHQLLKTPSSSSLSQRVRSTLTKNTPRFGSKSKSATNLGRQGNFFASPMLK

[2] = target: Glucose-6-phosphate 1-dehydrogenase (Homo sapiens, UniProt P11413); assay: human G6PD enzyme inhibitors, dose response, selectivity assay for P. falciparum G6PD inhibitor project, biochemical, fluorescence (AID 504792); format: functional
Sequence of Glucose-6-phosphate 1-dehydrogenase (P11413 whole entry): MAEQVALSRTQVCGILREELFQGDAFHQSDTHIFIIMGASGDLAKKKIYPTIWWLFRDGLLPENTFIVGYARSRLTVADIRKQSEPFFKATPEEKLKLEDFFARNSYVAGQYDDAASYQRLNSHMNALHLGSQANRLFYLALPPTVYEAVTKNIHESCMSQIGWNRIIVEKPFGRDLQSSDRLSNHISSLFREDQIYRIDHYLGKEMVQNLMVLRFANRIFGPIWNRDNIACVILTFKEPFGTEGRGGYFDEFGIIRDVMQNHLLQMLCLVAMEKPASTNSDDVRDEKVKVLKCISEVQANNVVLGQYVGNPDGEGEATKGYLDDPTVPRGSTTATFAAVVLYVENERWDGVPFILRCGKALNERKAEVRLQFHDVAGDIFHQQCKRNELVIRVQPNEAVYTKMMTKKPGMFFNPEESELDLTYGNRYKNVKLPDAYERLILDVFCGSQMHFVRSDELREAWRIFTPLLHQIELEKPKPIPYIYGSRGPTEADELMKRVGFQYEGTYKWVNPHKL

[3] = target: T2, Fructose-bisphosphate aldolase (Mycobacterium tuberculosis, UniProt P9WQA3); assay: Fluorescence-based biochemical high throughput dose response assay for inhibitors of the fructose-bisphosphate aldolase (FBA) of M. tuberculosis.; format: functional
T2 sequence (P9WQA3 whole entry): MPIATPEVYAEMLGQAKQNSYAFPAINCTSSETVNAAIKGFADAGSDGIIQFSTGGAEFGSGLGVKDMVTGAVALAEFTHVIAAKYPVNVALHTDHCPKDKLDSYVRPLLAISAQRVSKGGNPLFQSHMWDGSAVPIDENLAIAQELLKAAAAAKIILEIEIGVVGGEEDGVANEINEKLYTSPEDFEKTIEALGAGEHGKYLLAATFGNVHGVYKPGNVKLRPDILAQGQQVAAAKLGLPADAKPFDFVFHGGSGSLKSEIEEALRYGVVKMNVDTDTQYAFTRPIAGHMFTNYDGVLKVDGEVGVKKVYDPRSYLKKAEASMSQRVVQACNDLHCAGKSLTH

[4] = Counterscreen for activators of the function of SWI/SNF related, matrix associated, actin dependent regulator of chromatin, subfamily a, member 2 (SMARCA2, BRM): Luminescence-based cell-based high throughput dose response assay to identify non-selective compounds using the VP16 reporter assay.; format: functional
[5] = target: SWI/SNF-related matrix-associated actin-dependent regulator of chromatin subfamily A member 2 (Homo sapiens, UniProt P51531); assay: Luminescence-based cell-based high throughput dose response assay to identify activators of the function of SWI/SNF related, matrix associated, actin dependent regulator of chromatin, subfamily a, member 2 (SMARCA2, BRM).; format: functional
Sequence of SWI/SNF-related matrix-associated actin-dependent regulator of chromatin subfamily A member 2 (P51531 whole entry): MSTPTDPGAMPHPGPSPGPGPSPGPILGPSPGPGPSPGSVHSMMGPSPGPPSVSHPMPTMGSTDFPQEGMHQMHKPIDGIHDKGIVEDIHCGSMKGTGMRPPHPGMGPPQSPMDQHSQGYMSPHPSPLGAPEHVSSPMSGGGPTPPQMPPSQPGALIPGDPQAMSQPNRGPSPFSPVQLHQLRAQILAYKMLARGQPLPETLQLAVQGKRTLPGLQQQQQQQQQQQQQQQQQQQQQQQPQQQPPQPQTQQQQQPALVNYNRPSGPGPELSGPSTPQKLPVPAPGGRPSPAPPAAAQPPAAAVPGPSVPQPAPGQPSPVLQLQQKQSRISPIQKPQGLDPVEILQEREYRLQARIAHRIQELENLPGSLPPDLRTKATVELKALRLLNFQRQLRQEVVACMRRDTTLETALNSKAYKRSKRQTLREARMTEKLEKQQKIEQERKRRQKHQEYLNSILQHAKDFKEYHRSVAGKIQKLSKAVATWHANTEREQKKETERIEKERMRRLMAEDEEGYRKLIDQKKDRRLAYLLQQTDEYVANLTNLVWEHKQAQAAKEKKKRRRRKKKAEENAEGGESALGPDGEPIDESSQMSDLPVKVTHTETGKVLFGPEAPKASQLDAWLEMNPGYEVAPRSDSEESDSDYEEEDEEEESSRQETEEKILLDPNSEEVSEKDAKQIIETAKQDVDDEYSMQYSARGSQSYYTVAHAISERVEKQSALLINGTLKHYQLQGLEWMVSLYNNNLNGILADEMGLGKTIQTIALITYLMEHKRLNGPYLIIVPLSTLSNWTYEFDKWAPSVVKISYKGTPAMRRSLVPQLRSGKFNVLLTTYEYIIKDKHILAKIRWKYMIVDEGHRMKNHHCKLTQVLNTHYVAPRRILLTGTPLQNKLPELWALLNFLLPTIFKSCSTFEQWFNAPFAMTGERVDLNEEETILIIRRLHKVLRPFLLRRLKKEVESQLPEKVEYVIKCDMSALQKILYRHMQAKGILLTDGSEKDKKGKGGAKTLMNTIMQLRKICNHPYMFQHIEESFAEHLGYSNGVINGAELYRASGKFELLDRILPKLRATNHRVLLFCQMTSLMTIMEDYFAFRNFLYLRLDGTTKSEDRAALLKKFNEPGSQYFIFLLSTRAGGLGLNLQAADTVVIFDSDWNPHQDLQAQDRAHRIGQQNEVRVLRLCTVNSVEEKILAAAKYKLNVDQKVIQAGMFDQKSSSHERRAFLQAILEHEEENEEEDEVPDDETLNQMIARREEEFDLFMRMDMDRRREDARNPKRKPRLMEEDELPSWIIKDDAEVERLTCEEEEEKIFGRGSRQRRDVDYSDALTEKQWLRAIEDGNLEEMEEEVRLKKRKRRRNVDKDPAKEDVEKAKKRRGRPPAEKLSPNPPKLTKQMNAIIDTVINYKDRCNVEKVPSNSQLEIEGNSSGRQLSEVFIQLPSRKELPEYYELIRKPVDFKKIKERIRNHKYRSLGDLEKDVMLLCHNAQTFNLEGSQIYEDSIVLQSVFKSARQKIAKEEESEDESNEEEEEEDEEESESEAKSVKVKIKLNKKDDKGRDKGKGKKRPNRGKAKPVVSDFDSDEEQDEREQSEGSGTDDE

[6] = test system: HEK293; assay: inhibitors of LMP1-driven NF-kB reporter, dose response, cell-based, HEK293, luciferase, cherry-pick (AID 588343); format: functional; settings: Homo sapiens
[7] = target: T3, Sentrin-specific protease 7 (Homo sapiens, UniProt Q9BQF6); format: functional;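 note: Luminescence-based dose-response confirmation of ultra-high-throughput screening hits, measuring inhibition of SENP7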
T3 sequence (Q9BQF6 whole entry): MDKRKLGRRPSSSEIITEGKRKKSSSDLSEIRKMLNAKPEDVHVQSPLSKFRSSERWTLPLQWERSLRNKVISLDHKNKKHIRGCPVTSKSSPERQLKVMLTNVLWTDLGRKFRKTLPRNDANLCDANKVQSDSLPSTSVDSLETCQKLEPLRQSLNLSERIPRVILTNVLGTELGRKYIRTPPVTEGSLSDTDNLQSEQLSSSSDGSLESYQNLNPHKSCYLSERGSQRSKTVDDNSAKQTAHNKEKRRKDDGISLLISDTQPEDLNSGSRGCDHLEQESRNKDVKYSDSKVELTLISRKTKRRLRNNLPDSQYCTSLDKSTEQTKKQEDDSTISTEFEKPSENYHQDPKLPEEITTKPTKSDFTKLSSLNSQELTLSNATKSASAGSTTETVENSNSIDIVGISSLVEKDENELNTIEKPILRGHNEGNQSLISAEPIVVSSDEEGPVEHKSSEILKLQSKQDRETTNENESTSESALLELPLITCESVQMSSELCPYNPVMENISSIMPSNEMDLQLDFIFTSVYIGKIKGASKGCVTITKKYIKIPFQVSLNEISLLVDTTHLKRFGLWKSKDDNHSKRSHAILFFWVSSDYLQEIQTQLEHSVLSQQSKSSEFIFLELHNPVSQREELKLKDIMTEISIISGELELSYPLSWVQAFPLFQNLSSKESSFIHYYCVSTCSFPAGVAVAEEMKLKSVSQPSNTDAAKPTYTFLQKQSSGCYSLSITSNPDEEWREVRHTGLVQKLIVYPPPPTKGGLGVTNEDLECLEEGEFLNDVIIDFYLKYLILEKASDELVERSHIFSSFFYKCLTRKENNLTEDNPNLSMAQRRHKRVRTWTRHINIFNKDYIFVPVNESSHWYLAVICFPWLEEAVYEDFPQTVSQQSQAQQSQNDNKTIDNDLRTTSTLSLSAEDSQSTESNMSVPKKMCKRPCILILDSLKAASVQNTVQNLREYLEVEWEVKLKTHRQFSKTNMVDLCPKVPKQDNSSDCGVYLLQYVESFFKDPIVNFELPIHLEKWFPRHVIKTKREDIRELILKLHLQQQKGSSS

[8] = target: T4, Caspase-3 (Homo sapiens, UniProt P42574); format: functional;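 note: Dose-response selectivity test against caspase-3 for candidate inhibitors of sentrin-specific proteases (SENPs)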
T4 sequence (P42574 whole entry): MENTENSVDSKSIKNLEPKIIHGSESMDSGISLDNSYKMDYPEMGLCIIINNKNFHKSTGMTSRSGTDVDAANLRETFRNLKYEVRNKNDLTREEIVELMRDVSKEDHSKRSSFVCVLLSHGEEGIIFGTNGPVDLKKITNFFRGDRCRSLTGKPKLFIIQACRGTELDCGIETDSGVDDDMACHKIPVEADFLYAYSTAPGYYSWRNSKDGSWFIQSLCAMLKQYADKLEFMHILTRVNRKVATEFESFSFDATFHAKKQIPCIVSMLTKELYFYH

[9] = target: T5, Sentrin-specific protease 8 (Homo sapiens, UniProt Q96LD8); format: functional;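 note: luminescence read-out of SENP8 inhibition, dose-response confirmation following an ultra-high-throughput screen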
T5 sequence (Q96LD8 whole entry): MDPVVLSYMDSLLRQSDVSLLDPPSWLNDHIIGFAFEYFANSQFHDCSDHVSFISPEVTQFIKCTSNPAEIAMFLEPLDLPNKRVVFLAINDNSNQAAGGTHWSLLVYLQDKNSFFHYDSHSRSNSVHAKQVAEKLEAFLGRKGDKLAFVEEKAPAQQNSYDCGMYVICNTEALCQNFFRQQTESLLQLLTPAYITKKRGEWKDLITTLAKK

[10] = target: T6, Sentrin-specific protease 6 (Homo sapiens, UniProt Q9GZR1); format: functional;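 note: Luminescence-based dose-response confirmatory assay of SENP6 inhibition, following up an ultra-high-throughput screen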
T6 sequence (Q9GZR1 whole entry): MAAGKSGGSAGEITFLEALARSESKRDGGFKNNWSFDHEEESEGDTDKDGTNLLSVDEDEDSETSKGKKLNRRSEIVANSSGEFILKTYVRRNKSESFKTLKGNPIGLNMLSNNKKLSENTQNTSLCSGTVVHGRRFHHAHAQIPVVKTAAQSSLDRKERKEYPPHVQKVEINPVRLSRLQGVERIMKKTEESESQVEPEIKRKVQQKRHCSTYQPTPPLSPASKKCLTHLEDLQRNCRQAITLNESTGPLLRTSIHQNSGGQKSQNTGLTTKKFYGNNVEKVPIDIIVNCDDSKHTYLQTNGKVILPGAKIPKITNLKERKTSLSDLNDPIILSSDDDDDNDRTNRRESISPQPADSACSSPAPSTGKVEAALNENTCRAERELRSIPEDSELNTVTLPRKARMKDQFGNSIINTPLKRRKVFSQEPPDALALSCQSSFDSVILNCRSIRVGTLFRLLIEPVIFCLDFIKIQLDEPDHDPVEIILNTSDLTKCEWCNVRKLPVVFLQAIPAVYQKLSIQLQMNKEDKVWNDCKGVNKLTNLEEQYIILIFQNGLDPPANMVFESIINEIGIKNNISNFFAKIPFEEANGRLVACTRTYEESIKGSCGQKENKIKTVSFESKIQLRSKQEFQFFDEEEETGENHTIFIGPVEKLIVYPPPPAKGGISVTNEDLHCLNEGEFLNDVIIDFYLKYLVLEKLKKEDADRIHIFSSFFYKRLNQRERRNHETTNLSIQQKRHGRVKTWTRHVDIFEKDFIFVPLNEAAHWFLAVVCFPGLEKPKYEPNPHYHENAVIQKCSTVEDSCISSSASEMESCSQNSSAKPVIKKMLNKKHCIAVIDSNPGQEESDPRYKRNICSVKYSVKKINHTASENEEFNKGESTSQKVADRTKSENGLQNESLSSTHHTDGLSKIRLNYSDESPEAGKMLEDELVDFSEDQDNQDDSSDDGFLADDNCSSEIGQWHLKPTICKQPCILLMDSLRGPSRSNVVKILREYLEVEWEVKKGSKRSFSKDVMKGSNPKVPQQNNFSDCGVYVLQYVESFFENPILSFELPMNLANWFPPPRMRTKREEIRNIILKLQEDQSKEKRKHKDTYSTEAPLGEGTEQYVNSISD

[11] = microbe, parasite or virus in culture; format: functional; settings: Mycobacterium tuberculosis
[12] = HEp-2 cell cytotoxicity, dose response, cytotoxicity control for RSV inhibitor project, HTS (AID 2410); format: functional; settings: human respiratory syncytial virus
[13] = A549 cell cytotoxicity, dose response, cytotoxicity control, plate reader, cherry-pick, antagonist series (AID 743412); format: functional, cell-based
[14] = LGR2 antagonists, dose response, cell-based, HEK293, CRE-luciferase reporter, cherry pick, set 2 (AID 743343); format: functional;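 note: transfected cells were stimulated with diluted bursicon conditioned medium after compound addition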
[15] = MC4R antagonists, dose response, counter-screen for LGR2 antagonist project, cell-based, plate reader, cherry pick (AID 743444); format: functional;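 note: transfected HEK 293 cells stimulated with alpha-MSH peptide; potency of inhibitors of the alpha-MSH evoked signal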

In the case of `COc1cc(N)c2ncccc2c1OC`, the IC50 [1] is reported as 56.3 µM (active) and the IC50 [2] is reported as > 80 µM (inactive).
In the case of `O=C1C(=O)N(c2ccccc2)C(c2ccccc2)C1c1ccccc1` (centres undefined), the IC50 [3] is reported as > 9.99 µM (inactive).
In the case of `COc1ccc2nc3c(O)n(Cc4ccncc4)cnc-3c2c1`, the IC50 [3] is reported as 0.97 µM (active).
With `COc1cc(OC)cc(-c2nc3ccccc3s2)c1` the EC50 [4] was > 91.1 µM (inactive) and the EC50 [5] was > 91.1 µM (inactive).
For `C=CCn1c(C)c(C(C)=O)c(N2CCN(C(c3ccccc3)c3ccccc3)CC2)nc1=S`, the AC50 [6] was 63.8 µM (active).
In the case of `Cc1nc2cc(-c3cccs3)nn2c(O)c1C`, the IC50 [3] is reported as > 3.33 µM (active).
In the case of `O=C1NC(=O)/C(=C/c2ccc(-c3cccc([N+](=O)[O-])c3)o2)S1`, the IC50 [7] is reported as 50.7 µM (active), the IC50 [8] is reported as 13.6 µM (active) and the IC50 [9] is reported as 55.7 µM (active). For the same compound, the IC50 [10] was 17 µM (active), the CC50 [11] was > 40 µM (active) and the CC50 [12] was 1.93 µM (active).
In the case of `COC(=O)/C=C/C(=O)Nc1cccc(C(F)(F)F)c1`, the AC50 [6] is reported as 11.1 µM (active).
For `Cc1ccc(C(=O)Nc2ccc3c(c2)OCCO3)cc1`, the AC50 [13] was > 52 µM (inactive), the AC50 [14] was 2.67 µM (active) and the AC50 [6] was 2.05 µM (active). The AC50 [15] was 4.05 µM (active).
